We go through 25 compounds from patent US20230218573A1, “INDOLE COMPOUNDS FOR THE TREATMENT OF NEURODEGENERATIVE DISEASES” (GALYAN BIO, INC., priority 2020, published 2023).

The test system of assay [1] is STHdh 111/111 striatal cells. In words: Cell viability (CellTiter Glo) of heat shocked STHdh 111/111 striatal cells. It counts as cell-based, mouse. Particulars: Mus musculus, STHdh 111/111; 10 µM; 48 hours treatment; read-out: Cell Viability striatal cells 3h heat shocked.
Method: Cell culture - ST HDH Q111/111 (CH00095, Coriell Institute) striatal derived cell line were grown at 33° C. in DMEM (Sigma-Aldrich), supplemented with 10% fetal bovine serum (FBS), 1% Penicillin-Streptomycin (ThermoFisher Scientific), and 0.4 mg/ml G418 (Geneticin; Invitrogen). ST HDH Q111/111 are mouse striatal cells with polyQ length of 1111.
Pre-Treatment of striatal cell line - First the medium was removed and new DMEM (DMEM, high glucose, HEPES, no phenol red) medium, supplemented with 10% fetal bovine serum (FBS), 1% Penicillin-Streptomycin, containing 10 µM compound was added. The cells were incubated at 33° C. for 24 hours.
Heat shock - Cells were heat shocked for 3 hours at 41° C.
Treatment - Medium was removed and new DMEM (DMEM, high glucose, HEPES, no phenol red) medium, supplemented with 1% fetal bovine serum (FBS), 1% Penicillin-Streptomycin, containing 10 µM compound was added. The cells were incubated at 33° C. for 48 hours.
Cell Viability - Cell viability was measured according to manufacturer recommendations with CellTiter Glo (Promega). 96-well plates for used either for cell viability determination or cell staining.
The next assay has as its target mHTT (Mus musculus, UniProt P42859, DEL28-30/G47A/INS49LLPQPQPP/INS60VA/L56P/P40L). In words: Diffuse mHTT levels in heat shocked STHdh 111/111 striatal cells by immunocytochemistry. Particulars: 48 h.

Read-outs that look alike come from different tables or passages of the source.

Chain of mHTT (P42859 with tags, fused parts or gaps DEL28-30/P40L/G47A/INS49LLPQPQPP/L56P/INS60VA): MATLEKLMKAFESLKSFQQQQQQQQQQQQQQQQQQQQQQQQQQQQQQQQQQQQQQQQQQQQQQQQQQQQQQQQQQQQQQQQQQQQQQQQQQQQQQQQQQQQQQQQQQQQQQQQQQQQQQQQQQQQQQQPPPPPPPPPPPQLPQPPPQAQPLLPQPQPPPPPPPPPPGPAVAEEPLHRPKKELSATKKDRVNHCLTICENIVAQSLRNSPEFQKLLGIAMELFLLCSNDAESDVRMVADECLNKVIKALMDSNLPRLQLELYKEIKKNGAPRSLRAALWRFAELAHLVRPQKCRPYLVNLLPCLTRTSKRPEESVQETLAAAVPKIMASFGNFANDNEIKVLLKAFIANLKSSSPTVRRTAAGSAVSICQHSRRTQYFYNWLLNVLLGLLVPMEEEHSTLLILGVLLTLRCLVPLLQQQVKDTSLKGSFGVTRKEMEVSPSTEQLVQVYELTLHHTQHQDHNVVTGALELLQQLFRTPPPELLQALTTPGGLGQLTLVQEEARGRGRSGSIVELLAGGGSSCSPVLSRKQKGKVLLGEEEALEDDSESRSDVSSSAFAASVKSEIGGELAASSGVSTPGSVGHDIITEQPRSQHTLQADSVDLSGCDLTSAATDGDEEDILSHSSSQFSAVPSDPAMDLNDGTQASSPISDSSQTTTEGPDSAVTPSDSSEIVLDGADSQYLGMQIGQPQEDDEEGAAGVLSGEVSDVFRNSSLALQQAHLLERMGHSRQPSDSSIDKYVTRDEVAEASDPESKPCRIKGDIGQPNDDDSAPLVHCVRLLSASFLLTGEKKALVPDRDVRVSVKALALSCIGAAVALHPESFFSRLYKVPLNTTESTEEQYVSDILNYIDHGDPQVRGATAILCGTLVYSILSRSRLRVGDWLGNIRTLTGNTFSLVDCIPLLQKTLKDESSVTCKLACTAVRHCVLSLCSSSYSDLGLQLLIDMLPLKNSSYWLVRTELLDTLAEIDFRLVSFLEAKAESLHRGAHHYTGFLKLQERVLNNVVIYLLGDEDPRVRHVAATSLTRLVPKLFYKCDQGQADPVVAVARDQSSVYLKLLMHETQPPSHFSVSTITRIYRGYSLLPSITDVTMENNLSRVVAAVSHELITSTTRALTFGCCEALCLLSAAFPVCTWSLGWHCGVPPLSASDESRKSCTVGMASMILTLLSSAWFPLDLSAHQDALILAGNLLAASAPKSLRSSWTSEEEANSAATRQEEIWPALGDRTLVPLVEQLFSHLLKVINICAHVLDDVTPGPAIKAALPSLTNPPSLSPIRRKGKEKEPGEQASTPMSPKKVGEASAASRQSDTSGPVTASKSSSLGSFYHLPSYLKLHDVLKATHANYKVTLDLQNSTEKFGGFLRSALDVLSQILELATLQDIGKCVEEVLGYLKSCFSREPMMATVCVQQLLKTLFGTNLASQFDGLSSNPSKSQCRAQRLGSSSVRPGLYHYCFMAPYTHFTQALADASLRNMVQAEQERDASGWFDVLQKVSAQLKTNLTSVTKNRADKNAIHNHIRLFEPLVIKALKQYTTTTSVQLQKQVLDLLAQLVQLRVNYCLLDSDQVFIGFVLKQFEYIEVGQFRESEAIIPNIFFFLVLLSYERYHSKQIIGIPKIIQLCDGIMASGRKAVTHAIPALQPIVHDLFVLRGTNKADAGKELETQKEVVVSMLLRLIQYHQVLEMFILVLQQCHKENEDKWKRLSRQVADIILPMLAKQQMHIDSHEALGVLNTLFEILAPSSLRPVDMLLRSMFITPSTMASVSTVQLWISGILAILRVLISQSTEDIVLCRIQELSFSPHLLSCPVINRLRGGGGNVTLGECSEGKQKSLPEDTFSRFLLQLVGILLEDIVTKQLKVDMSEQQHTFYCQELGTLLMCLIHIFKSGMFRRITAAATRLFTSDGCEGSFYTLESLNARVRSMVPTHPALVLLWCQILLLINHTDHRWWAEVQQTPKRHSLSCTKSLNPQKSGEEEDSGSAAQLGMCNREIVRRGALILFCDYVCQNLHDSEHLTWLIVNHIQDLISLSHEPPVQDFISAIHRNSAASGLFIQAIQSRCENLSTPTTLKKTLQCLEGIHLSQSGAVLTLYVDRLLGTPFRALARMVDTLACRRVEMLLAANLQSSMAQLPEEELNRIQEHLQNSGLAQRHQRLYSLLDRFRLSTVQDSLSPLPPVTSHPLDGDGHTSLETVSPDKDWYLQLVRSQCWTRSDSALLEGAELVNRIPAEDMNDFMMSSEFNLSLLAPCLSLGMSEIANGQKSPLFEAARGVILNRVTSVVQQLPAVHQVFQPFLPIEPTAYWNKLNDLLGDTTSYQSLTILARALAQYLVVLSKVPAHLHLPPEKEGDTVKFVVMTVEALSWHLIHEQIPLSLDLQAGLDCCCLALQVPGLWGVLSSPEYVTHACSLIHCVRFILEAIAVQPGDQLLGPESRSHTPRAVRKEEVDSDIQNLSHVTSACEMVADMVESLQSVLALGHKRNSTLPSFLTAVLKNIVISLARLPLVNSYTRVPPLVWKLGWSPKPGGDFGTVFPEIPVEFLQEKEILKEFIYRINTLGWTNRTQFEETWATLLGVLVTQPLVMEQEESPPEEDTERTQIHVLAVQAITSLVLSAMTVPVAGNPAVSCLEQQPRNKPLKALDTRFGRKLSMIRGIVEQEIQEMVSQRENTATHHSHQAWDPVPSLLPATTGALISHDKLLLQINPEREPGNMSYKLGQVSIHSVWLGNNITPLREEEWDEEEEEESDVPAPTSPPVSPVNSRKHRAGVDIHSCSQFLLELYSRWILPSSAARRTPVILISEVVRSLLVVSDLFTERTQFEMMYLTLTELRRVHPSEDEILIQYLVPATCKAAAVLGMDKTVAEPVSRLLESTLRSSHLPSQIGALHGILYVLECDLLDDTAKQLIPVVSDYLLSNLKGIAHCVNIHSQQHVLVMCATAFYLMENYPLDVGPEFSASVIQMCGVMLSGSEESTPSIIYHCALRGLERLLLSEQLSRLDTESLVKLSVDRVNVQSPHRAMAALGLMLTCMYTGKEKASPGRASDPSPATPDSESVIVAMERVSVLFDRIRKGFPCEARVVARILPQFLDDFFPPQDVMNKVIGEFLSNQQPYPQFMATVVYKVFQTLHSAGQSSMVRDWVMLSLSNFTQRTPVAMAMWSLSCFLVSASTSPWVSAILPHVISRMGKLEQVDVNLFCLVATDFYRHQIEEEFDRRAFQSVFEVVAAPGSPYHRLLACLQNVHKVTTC

`Cc1c(C)n(C)c2ccc(C(=O)NCCN3CCCCC3)cc12` [Compound 31, 1,2,3-Trimethyl-N-(2-(piperidin-1-yl)ethyl)-1H-indole-5-carboxamide]: in assay [1], the viability at 10 µM was 116%.
Same read-out and setting: with `CCc1c(C)[nH]c2ccc(C(=O)NCCN3CCC3)cc12` [Compound 33] the figure was 79%; with `O=C(NCCN1CCCC1)c1ccc2[nH]c3c(c2c1)CCCC3` [Compound 13], 117%.
With `CCc1[nH]c2ccc(C(=O)NCCN3CCOCC3)cc2c1C` [Compound 30], in assay [1], the viability at 10 µM is 55%.
As to `CCN(CC)CCNC(=O)c1ccc2c(c1)c(C)c(C)n2C` [Compound 19, N-(2-(Diethylamino)ethyl)-1,2,3-dimethyl-1H-indole-5-carboxamide], the viability at 10 µM in assay [1] worked out at 76%. Moreover, the remaining activity at 10 µM at mHTT (read-out: mHTT after treatment, 10 µM, 3 h heat shock, 48 hours treatment, in comparison to untreated STHdh 111/111) was 45%.
In the case of `CCc1[nH]c2ccc(C(=O)NCCN3CCCC3)cc2c1C` [Compound 11], the viability at 10 µM in assay [1] turned out to be 114%. Also, the remaining activity at 10 µM on mHTT (read-out: mHTT after treatment) came out at 40%.
Take `CN1CCN(CCNC(=O)c2ccc3[nH]c4c(c3c2)CCCC4)CC1` [Compound 36]: in assay [1], the viability at 10 µM is 84%.
With `CCN(CC)CCNC(=O)c1ccc2[nH]c3c(c2c1)CCC3` [Compound 27], the viability at 10 µM in assay [1] was 66%. For the same compound, the remaining activity at 10 µM at mHTT (read-out: mHTT after treatment) was 50%.
Regarding `CCc1[nH]c2ccc(C(=O)NCCN(C)C)cc2c1C` [Compound 37], the viability at 10 µM in assay [1] was determined as 78%.
In the case of `O=C(NCCN1CCOCC1)c1ccc2[nH]c3c(c2c1)CCC3` [Compound 8], the viability at 10 µM in assay [1] was found to be 115%.
With `Cc1c(C)n(C)c2ccc(C(=O)NCCN3CCCC3)cc12` [Compound 46, 1,2,3-Trimethyl-N-(2-(pyrrolidin-1-yl)ethyl)-1Hindole-5-carboxamide], the viability at 10 µM in assay [1] came out at 96%.
Regarding `CN(C)CCNC(=O)c1ccc2[nH]c3c(c2c1)CCC3` [Compound 5], the viability at 10 µM in assay [1] came out at 104%.
Still for that read-out and setting: to `O=C(NCCN1CCC1)c1ccc2[nH]c3c(c2c1)CCC3` [Compound 42] belongs 88%; to `CN(C)CCNC(=O)c1ccc2[nH]c3c(c2c1)CCCC3` [Compound 3], 86%.
The same measure, in the same setting: with `CC(C)N(CCNC(=O)c1ccc2[nH]ccc2c1)C(C)C` [Compound 43] the figure was 32%; with `Cc1c(C)n(C)c2ccc(C(=O)NCCN3CCCCC3C)cc12` (stereo not shown) [Compound 48], 108%.
The same measure, in the same setting: with `Cc1c(C)n(C)c2ccc(C(=O)NCCN(C)C)cc12` [Compound 41, N-(2-(Dimethylamino)ethyl)-1,2,3-trimethyl-1H-indole-5-carboxamide] the figure was 75%.
Consider `CCc1[nH]c2ccc(C(=O)NCCN3CCCCC3)cc2c1C` [Compound 23], for which the viability at 10 µM in assay [1] came out at 84%.
Consider `Cc1[nH]c2ccc(C(=O)NCCN3CCCCC3)cc2c1C` [Compound 47, 2,3-Dimethyl-N-(2-(piperidin-1-yl)ethyl)-1H-indole-5-carboxamide], for which the viability at 10 µM in assay [1] was 66%.
Take `Cc1c(C)n(C)c2ccc(C(=O)NCCN3CCN(C)C(C)C3)cc12` (stereo not shown) [Compound 25, N-(2-(3,4-Dimethylpiperazin-1-yl)ethyl)-1,2,3-trimethyl-1H-indole-5-carboxamide]: the viability at 10 µM in assay [1] was 109%.
Same read-out and setting: to `Cc1[nH]c2ccc(C(=O)NCCN3CCC3)cc2c1C` [Compound 17, N-(2-(Azetidin-1-yl)ethyl)-2,3-dimethyl-1H-indole-5-carboxamide] belongs 99%.
On the same count and under the same terms, with `CCc1c(C)[nH]c2ccc(C(=O)NCCN3CCN(C)CC3)cc12` [Compound 15] the figure was 104%.
The same measure, in the same setting: with `O=C(NCCN1CCCCC1)c1ccc2[nH]c3c(c2c1)CCCC3` [Compound 16] the figure was 117%; with `CCc1c(C)[nH]c2ccc(C(=O)NCCN3CCOCC3)cc12` [Compound 32], 98%; with `CCc1[nH]c2ccc(C(=O)NCCN(CC)CC)cc2c1C` [Compound 38], 81%.

As usually defined, the viability is a read-out of living cells in per cent, often relative to untreated cells.
